# From patent US12600728B2, “Interleukin-17 inhibitors” (priority 2020, dated 2026)
# Read-outs that look alike come from different tables or passages of the source.
# Columns and labels:
# [1] = molecular target: biotinylated human IL-17A / AF647-labeled human IL-17RA (Homo sapiens, UniProt Q16552); assay: Human IL-17A×IL-17RA TR-FRET assay; format: binding
# Procedure, shortened: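 Compounds tested in duplicate at each concentration; neutral controls contain all components with DMSO in place of compound.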
# [2] = molecular target: recombinant human IL-17AA (Homo sapiens, UniProt Q16552); assay: IL-6 release from NHDF cells, IL-17AA plus TNF-α stimulation; format: cell-based; conditions: 24 hours, IL-6 by ELISA
# Procedure, shortened: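 IL-17-specific IL-6 release from NHDF cells adhered overnight; compounds pre-incubated 30 min at room temperature with human IL-17AA plus TNF-α, then 24 h on cells at 37° C. Final DMSO 0.1% or plasma 20%; IL-6 by ELISA (450 nm). TNF-α-only IL-6 subtracted before IC50 fit.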
# [3] = TR-FRET, biotinylated human IL-17A 5 nM, AF647-labeled human IL-17RA 30 nM, read-out: IL17AA FRET/ IL17Rawt IC50
# [4] = NHDF cells, IL-17AA 30 pM plus TNF-α 6 pM, read-out: IL17AA + TNF IC50 IL-6
# [5] = TR-FRET, 5 nM IL-17A, 30 nM IL-17RA, read-out: IL17AA FRET/ IL17Rawt IC50
# [6] = NHDF cells, IL-17AA 30 pM + TNF-α 6 pM, read-out: IL17AA + TNF IC50 IL-6
# [7] = IL17AA FRET/ IL17Rawt IC50, TR-FRET, 5 nM IL-17A, 30 nM IL-17RA
# [8] = IL17AA + TNF IC50 IL-6, NHDF cells, IL-17AA 30 pM + TNF-α 6 pM
# [9] = TR-FRET, 5 nM IL-17A, 30 nM IL-17RA, reference examples (pyridines), read-out: IL17AA FRET/ IL17RAwt IC50
# [10] = NHDF cells, IL-17AA 30 pM + TNF-α 6 pM, reference examples (pyridines), read-out: IL 17AA + TNF IC50 IL-6
# Sequence of biotinylated human IL-17A / AF647-labeled human IL-17RA (Q16552 24-155): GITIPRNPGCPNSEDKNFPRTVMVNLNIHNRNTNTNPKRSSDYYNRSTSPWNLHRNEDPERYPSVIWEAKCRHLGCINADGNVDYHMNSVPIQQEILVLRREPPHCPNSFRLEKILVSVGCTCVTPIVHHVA
# Sequence of recombinant human IL-17AA (Q16552 24-155): as above
SMILES,"IC50 [1, 5]","IC50 [2, 6]",also measured
"CCc1nocc1C(=O)N[C@H](C(=O)Nc1ccc(-c2c(C(F)(F)F)cc[n+]([O-])c2C)cc1)C1CCCC1 [Example 5, (S)-3-(4-(2-cyclopentyl-2-(3-ethylisoxazole-4-carboxamido)acetamido)phenyl)-2-methyl-4-(trifluoromethyl)pyridine 1-oxide]",,,"melting point: 149 to 151 °C; IC50 [1, 3]: 28 nM; IC50 [2, 4]: 9 nM"
"CCc1nocc1C(=O)N[C@H](C(=O)Nc1ccc(-c2c(Cl)cc[n+]([O-])c2C)cc1)[C@H]1CCCC(F)(F)C1 [Example 6, 4-chloro-3-(4-((S)-2-((S)-3,3-difluorocyclohexyl)-2-(3-ethylisoxazole-4-carboxamido)acetamido)phenyl)-2-methylpyridine 1-oxide]",,,"melting point: 247 to 250 °C; IC50 [1, 3]: 48 nM; IC50 [2, 4]: 5 nM"
"Cc1cc[n+]([O-])c(C)c1-c1ccc(NC(=O)[C@@H](NC(=O)c2ccc3n2CCNC3)C2CCCCC2)cc1 [Example 205, (S)-3-(4-(2-cyclohexyl-2-(1,2,3,4-tetrahydropyrrolo[1,2-a]pyrazine-6-carboxamido)acetamido)phenyl)-2,4-dimethylpyridine 1-oxide]",287 nM,58 nM,
"Cc1c(-c2ccc(NC(=O)[C@@H](NC(=O)c3ccc4n3CCNC4)C3CCCCC3)cc2)c(Cl)cc[n+]1[O-] [Example 206, (S)-4-chloro-3-(4-(2-cyclohexyl-2-(1,2,3,4-tetrahydropyrrolo[1,2-a]pyrazine-6-carboxamido)acetamido)phenyl)-2-methylpyridine 1-oxide]",296 nM,63 nM,
"Cc1cc[n+]([O-])c(C)c1-c1ccc(NC(=O)[C@@H](NC(=O)c2ccc3n2CCNC3)C2CCC(F)(F)CC2)cc1 [Example 207, (S)-3-(4-(2-(4,4-difluorocyclohexyl)-2-(1,2,3,4-tetrahydropyrrolo[1,2-a]pyrazine-6-carboxamido)acetamido)phenyl)-2,4-dimethylpyridine 1-oxide]",303 nM,69 nM,
"Cc1cc[n+]([O-])c(C)c1-c1ccc(NC(=O)[C@@H](NC(=O)c2ccc3n2CCN(C)C3)C(C)c2ccccc2Cl)cc1 (stereo partly drawn) [Example 213, 3-(4-((2S)-3-(2-chlorophenyl)-2-(2-methyl-1,2,3,4-tetrahydropyrrolo[1,2-a]pyrazine-6-carboxamido)butanamido)phenyl)-2,4-dimethylpyridine 1-oxide]",533 nM,2580 nM,
"Cc1cc[n+]([O-])c(C)c1-c1ccc(NC(=O)[C@@H](NC(=O)c2ccnn2C)[C@H]2CCC[C@@H](F)CC2)cc1 [Example 215, 3-(4-((S)-2-((1S,4R)-4-fluorocycloheptyl)-2-(1-methyl-1H-pyrazole-5-carboxamido)acetamido)phenyl)-2,4-dimethylpyridine 1-oxide]",755 nM,138 nM,
"Cc1cc[n+]([O-])c(C)c1-c1ccc(NC(=O)C(NC(=O)c2ccnn2C)C2C=C(F)CCC2)cc1 (stereo not drawn) [Example 219, 3-(4-(2-(3-fluorocyclohex-2-en-1-yl)-2-(1-methyl-1H-pyrazole-5-carboxamido)acetamido)phenyl)-2,4-dimethylpyridine 1-oxide]",,,"IC50 [1, 7]: 2290 nM; IC50 [2, 8]: 142 nM"
"Cc1c(-c2ccc(NC(=O)C(NC(=O)c3ccnn3C)[C@H]3C[C@@H]4C[C@@H]4C3)cc2F)c(Cl)cc[n+]1[O-] (stereo partly drawn) [Example 225, 3-(4-(2-((1R,3s,5S)-bicyclo[3.1.0]hexan-3-yl)-2-(1-methyl-1H-pyrazole-5-carboxamido)acetamido)-2-fluorophenyl)-4-chloro-2-methylpyridine 1-oxide]",,,"IC50 [1, 7]: 29 nM; IC50 [2, 8]: 12 nM"
"Cc1ccnc(C)c1-c1ccc(NC(=O)[C@@H](NC(=O)c2ccnn2C)[C@H]2CCCc3ccccc32)cc1 [compound 136, N—((S)-2-((4-(2,4-dimethylpyridin-3-yl)phenyl)amino)-2-oxo-1-((S)-1,2,3,4-tetrahydronaphthalen-1-yl)ethyl)-1-methyl-1H-pyrazole-5-carboxamide, reference compound]",,,"IC50 [1, 9]: 117 nM; IC50 [2, 10]: 50 nM"
"Cc1ccnc(C)c1-c1ccc(NC(=O)[C@@H](NC(=O)c2ccnn2C)[C@H]2CC[C@H](C)CC2)cc1 [compound 138, N-((S)-2-((4-(2,4-dimethylpyridin-3-yl)phenyl)amino)-1-((1r,4S)-4-methylcyclohexyl)-2-oxoethyl)-1-methyl-1H-pyrazole-5-carboxamide, reference compound]",,,"IC50 [1, 9]: 552 nM; IC50 [2, 10]: 55 nM"
"CCc1nocc1C(=O)N[C@H](C(=O)Nc1ccc(-c2c(C(F)(F)F)ccnc2C)cc1)C1CCCC1 [compound 139, (S)-N-(1-cyclopentyl-2-((4-(2-methyl-4-(trifluoromethyl)pyridin-3-yl)phenyl)amino)-2-oxoethyl)-3-ethylisoxazole-4-carboxamide, reference compound]",,,"IC50 [1, 9]: 899 nM; IC50 [2, 10]: 152 nM"
"Cc1ccnc(C)c1-c1ccc(NC(=O)[C@@H](NC(=O)c2ccnn2C)[C@@H]2CC=C(F)CC2)cc1 [compound 144, N-((S)-2-((4-(2,4-dimethylpyridin-3-yl)phenyl)amino)-1-((S)-4-fluorocyclohex-3-en-1-yl)-2-oxoethyl)-1-methyl-1H-pyrazole-5-carboxamide, reference compound]",,,"IC50 [1, 9]: 4180 nM; IC50 [2, 10]: 715 nM"

# Continued, in another order:
"IC50 [1, 5]","IC50 [2, 6]",SMILES,also measured
1100 nM,2960 nM,"Cc1cc[n+]([O-])c(C)c1-c1ccc(NC(=O)[C@H](Cc2ccccc2F)NC(=O)c2ccnn2C)cc1 [Example 217, (S)-3-(4-(3-(2-fluorophenyl)-2-(1-methyl-1H-pyrazole-5-carboxamido)propanamido)phenyl)-2,4-dimethylpyridine 1-oxide]",
67.5 nM,19.5 nM,"Cc1c(-c2ccc(NC(=O)C(NC(=O)c3ccnn3C)C3CC4CC4C3)cc2)c(Cl)cc[n+]1[O-] (stereo not drawn) [Example 218, 3-(4-(2-(bicyclo[3.1.0]hexan-3-yl)-2-(1-methyl-1H-pyrazole-5-carboxamido)acetamido)phenyl)-4-chloro-2-methylpyridine 1-oxide]",
71.9 nM,264 nM,"Cc1cc[n+]([O-])c(C)c1-c1ccc(NC(=O)C(NC(=O)c2conc2C)C(C)c2ccccc2Cl)cc1 (stereo not drawn) [Example 221, 3-(4-(3-(2-chlorophenyl)-2-(3-methylisoxazole-4-carboxamido)butanamido)phenyl)-2,4-dimethylpyridine 1-oxide]",
2190 nM,108 nM,"Cc1c(-c2ccc(NC(=O)[C@@H](NC(=O)c3ccnn3C)C3CCCCC3)cc2)c(C(C)C)cc[n+]1[O-] [Example 224, (S)-3-(4-(2-cyclohexyl-2-(1-methyl-1H-pyrazole-5-carboxamido)acetamido)phenyl)-4-isopropyl-2-methylpyridine 1-oxide]",
